Laboratory results from the supplement of paper PMC10307832.

Assays:
Assay in all cases: relative viability (nuclei count vs DMSO), 5 days (fraction); higher = more cells survive
[1] = system: NCI-H358
How it was run: (§1)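 The day after seeding in 1536-well plates, lung cancer cell lines were treated by pin tool with a single drug, or with a fixed anchor-drug dose together with five library-drug doses (not always all listed) in √10 steps. After 5 days, a combined fix-and-stain solution (final 0.05% Triton X-100, 1% formaldehyde, 1 ug/ml Hoechst) was added. Nuclei counted on 4× images gave relative viability as treated counts over vehicle counts, reported as the median of duplicate plates.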

[2] = system: NCI-H650
How it was run: as §1

[3] = system: NCI-H2342
How it was run: as §1

[4] = system: PC-3 [JPC-3]
How it was run: as §1

[5] = system: SK-MES-1
How it was run: as §1

[6] = system: UMC-11
How it was run: as §1

[7] = system: NCI-H1944
How it was run: as §1

[8] = system: LU99A
How it was run: as §1

[9] = system: H3255
How it was run: as §1

[10] = system: LK-2
How it was run: as §1

[11] = system: LC-2-ad
How it was run: as §1

[12] = system: ChaGo-K-1
How it was run: as §1

[13] = system: LCLC-97TM1
How it was run: as §1

[14] = system: LXF-289
How it was run: as §1

[15] = system: NCI-H596
How it was run: as §1

[16] = system: BEN
How it was run: as §1

[17] = system: NCI-H1666
How it was run: as §1

[18] = system: HCC-78
How it was run: as §1

[19] = system: HCC-15
How it was run: as §1

[20] = system: NCI-H322M
How it was run: as §1

[21] = system: NCI-H838
How it was run: as §1

[22] = system: NCI-H2087
How it was run: as §1

[23] = system: NCI-H1651
How it was run: as §1

[24] = system: NCI-H661
How it was run: as §1

With `Clc1ccc(Nc2nnc(Cc3ccncc3)c3ccccc23)cc1` [Vatalanib] + COc1cccc2cc(-c3nc([C@H]4CC[C@H](C(=O)O)CC4)n4ncnc(N)c34)[nH]c12 [OSI-027] (partner 0.5 µM) the relative viability ([1]; first compound 0.04 µM) was 0.811, the relative viability ([1]; first compound 0.1265 µM) was 0.678 and the relative viability ([1]; first compound 0.4 µM) was 0.747. It also gave a relative viability ([1]; first compound 1.265 µM) of 0.684, a relative viability ([1]; first compound 4 µM) of 0.698 and a relative viability ([2]; first compound 0.04 µM) of 0.627. It also gave a relative viability ([2]; first compound 0.1265 µM) of 0.49, a relative viability ([2]; first compound 1.265 µM) of 0.491 and a relative viability ([2]; first compound 4 µM) of 0.523. It also gave a relative viability ([3]; first compound 0.04 µM) of 0.691, a relative viability ([3]; first compound 0.1265 µM) of 0.556 and a relative viability ([3]; first compound 0.4 µM) of 0.616. The relative viability ([3]; first compound 1.265 µM) was 0.592, the relative viability ([3]; first compound 4 µM) was 0.601 and the relative viability ([4]; first compound 0.04 µM) was 0.752. The relative viability ([4]; first compound 0.1265 µM) was 0.698, the relative viability ([4]; first compound 0.4 µM) was 0.771 and the relative viability ([4]; first compound 1.265 µM) was 0.733. The relative viability ([4]; first compound 4 µM) was 0.672, the relative viability ([5]; first compound 0.04 µM) was 0.634 and the relative viability ([5]; first compound 0.1265 µM) was 0.588. It also gave a relative viability ([5]; first compound 0.4 µM) of 0.77, a relative viability ([5]; first compound 1.265 µM) of 0.578 and a relative viability ([5]; first compound 4 µM) of 0.575. The relative viability ([6]; first compound 0.04 µM) was 0.461, the relative viability ([6]; first compound 0.1265 µM) was 0.487 and the relative viability ([6]; first compound 0.4 µM) was 0.44. It also gave a relative viability ([6]; first compound 1.265 µM) of 0.433, a relative viability ([6]; first compound 4 µM) of 0.518 and a relative viability ([7]; first compound 0.04 µM) of 0.42. For the same molecule, the relative viability ([7]; first compound 0.1265 µM) was 0.421, the relative viability ([7]; first compound 0.4 µM) was 0.413 and the relative viability ([7]; first compound 1.265 µM) was 0.411. It also gave a relative viability ([7]; first compound 4 µM) of 0.336, a relative viability ([8]; first compound 0.04 µM) of 0.262 and a relative viability ([8]; first compound 0.1265 µM) of 0.282. The relative viability ([8]; first compound 0.4 µM) was 0.358, the relative viability ([8]; first compound 1.265 µM) was 0.307 and the relative viability ([8]; first compound 4 µM) was 0.277. For the same molecule, the relative viability ([9]; first compound 0.04 µM) was 0.566, the relative viability ([9]; first compound 0.1265 µM) was 0.529 and the relative viability ([9]; first compound 0.4 µM) was 0.51. It also gave a relative viability ([9]; first compound 1.265 µM) of 0.584, a relative viability ([9]; first compound 4 µM) of 0.504 and a relative viability ([10]; first compound 0.04 µM) of 0.211. For the same molecule, the relative viability ([10]; first compound 0.1265 µM) was 0.208, the relative viability ([10]; first compound 0.4 µM) was 0.214 and the relative viability ([10]; first compound 1.265 µM) was 0.196. For the same molecule, the relative viability ([10]; first compound 4 µM) was 0.198, the relative viability ([11]; first compound 0.04 µM) was 0.935 and the relative viability ([11]; first compound 0.1265 µM) was 0.865. It also gave a relative viability ([11]; first compound 1.265 µM) of 0.785, a relative viability ([11]; first compound 4 µM) of 0.826 and a relative viability ([12]; first compound 0.04 µM) of 0.589. For the same molecule, the relative viability ([12]; first compound 0.1265 µM) was 0.548, the relative viability ([12]; first compound 0.4 µM) was 0.622 and the relative viability ([12]; first compound 1.265 µM) was 0.5. The relative viability ([12]; first compound 4 µM) was 0.594, the relative viability ([13]; first compound 0.04 µM) was 0.45 and the relative viability ([13]; first compound 0.1265 µM) was 0.398. The relative viability ([13]; first compound 0.4 µM) was 0.552, the relative viability ([13]; first compound 1.265 µM) was 0.531 and the relative viability ([13]; first compound 4 µM) was 0.42. The relative viability ([14]; first compound 0.04 µM) was 0.824, the relative viability ([14]; first compound 0.1265 µM) was 0.802 and the relative viability ([14]; first compound 0.4 µM) was 0.858. For the same molecule, the relative viability ([14]; first compound 1.265 µM) was 0.806, the relative viability ([14]; first compound 4 µM) was 0.761 and the relative viability ([15]; first compound 0.04 µM) was 0.838. The relative viability ([15]; first compound 0.1265 µM) was 0.651, the relative viability ([15]; first compound 0.4 µM) was 0.777 and the relative viability ([15]; first compound 1.265 µM) was 0.756. The relative viability ([15]; first compound 4 µM) was 0.5, the relative viability ([16]; first compound 0.04 µM) was 0.297 and the relative viability ([16]; first compound 0.1265 µM) was 0.314. The relative viability ([16]; first compound 0.4 µM) was 0.31, the relative viability ([16]; first compound 1.265 µM) was 0.295 and the relative viability ([16]; first compound 4 µM) was 0.281. It also gave a relative viability ([17]; first compound 0.04 µM) of 0.852, a relative viability ([17]; first compound 0.1265 µM) of 0.815 and a relative viability ([17]; first compound 0.4 µM) of 0.883. For the same molecule, the relative viability ([17]; first compound 1.265 µM) was 0.802, the relative viability ([17]; first compound 4 µM) was 0.82 and the relative viability ([18]; first compound 0.04 µM) was 0.318. For the same molecule, the relative viability ([18]; first compound 0.1265 µM) was 0.37, the relative viability ([18]; first compound 0.4 µM) was 0.381 and the relative viability ([18]; first compound 1.265 µM) was 0.306. The relative viability ([18]; first compound 4 µM) was 0.351, the relative viability ([19]; first compound 0.04 µM) was 0.714 and the relative viability ([19]; first compound 0.1265 µM) was 0.724. For the same molecule, the relative viability ([19]; first compound 0.4 µM) was 0.535, the relative viability ([19]; first compound 1.265 µM) was 0.582 and the relative viability ([19]; first compound 4 µM) was 0.523. It also gave a relative viability ([20]; first compound 0.04 µM) of 0.573, a relative viability ([20]; first compound 0.1265 µM) of 0.546 and a relative viability ([20]; first compound 0.4 µM) of 0.493. For the same molecule, the relative viability ([20]; first compound 1.265 µM) was 0.52, the relative viability ([20]; first compound 4 µM) was 0.481 and the relative viability ([21]; first compound 0.04 µM) was 0.428. For the same molecule, the relative viability ([21]; first compound 0.1265 µM) was 0.384, the relative viability ([21]; first compound 0.4 µM) was 0.379 and the relative viability ([21]; first compound 1.265 µM) was 0.404. It also gave a relative viability ([21]; first compound 4 µM) of 0.443, a relative viability ([22]; first compound 0.04 µM) of 0.673 and a relative viability ([22]; first compound 0.1265 µM) of 0.468. The relative viability ([22]; first compound 0.4 µM) was 0.647, the relative viability ([22]; first compound 1.265 µM) was 0.548 and the relative viability ([22]; first compound 4 µM) was 0.564. For the same molecule, the relative viability ([23]; first compound 0.04 µM) was 0.751, the relative viability ([23]; first compound 0.1265 µM) was 0.723 and the relative viability ([23]; first compound 0.4 µM) was 0.662. The relative viability ([23]; first compound 1.265 µM) was 0.644, the relative viability ([23]; first compound 4 µM) was 0.615 and the relative viability ([24]; first compound 0.04 µM) was 0.737. For the same molecule, the relative viability ([24]; first compound 0.1265 µM) was 0.699, the relative viability ([24]; first compound 0.4 µM) was 0.709 and the relative viability ([24]; first compound 1.265 µM) was 0.717. It also gave a relative viability ([24]; first compound 4 µM) of 0.67.
